The text below walks through data of patent US20140213576A1, “NOVEL COMPOUND USEFUL FOR THE TREATMENT OF DEGENERATIVE AND INFLAMMATORY DISEASES” (GALAPAGOS NV, priority 2013, published 2014).

The target in assay [1] is T1, Recombinant human TYK2 catalytic domain (Homo sapiens, UniProt P29597).
T1 construct: Recombinant human TYK2 catalytic domain (amino acids 871-1187; catalog number 08-147); purchased Carna biosciences 08-147
T1 sequence (P29597 871-1187): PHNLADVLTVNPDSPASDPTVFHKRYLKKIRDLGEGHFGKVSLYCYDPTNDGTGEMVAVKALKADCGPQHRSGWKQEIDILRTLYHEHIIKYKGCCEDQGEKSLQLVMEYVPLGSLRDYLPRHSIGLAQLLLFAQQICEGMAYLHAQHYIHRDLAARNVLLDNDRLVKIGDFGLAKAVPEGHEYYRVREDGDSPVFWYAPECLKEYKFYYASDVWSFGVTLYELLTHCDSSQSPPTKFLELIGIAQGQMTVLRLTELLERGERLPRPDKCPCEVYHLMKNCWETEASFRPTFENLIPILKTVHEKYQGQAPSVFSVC
In words: TYK2 inhibition assay (polyGT substrate). It counts as biochemical. To be noted: 0.1 μM ATP, individual determinations, read-out: IC50 against TYK2. The procedure:
Recombinant human TYK2 catalytic domain (amino acids 871-1187; catalog number 08-147) was purchased from Carna biosciences. 5 ng of TYK2 was incubated with 12.5 μg polyGT substrate (Sigma catalog number P0275) in kinase reaction buffer (25 mM Hepes pH 7.2, 50 mM NaCl, 0.5 mM EDTA, 1 mM DTT, 5 mM MnCl2, 10 mM MgCl2, 0.1% Brij-35, 0.1 μM non-radioactive ATP, 0.125 μCi ^33P-gamma-ATP (GE Healthcare, catalog number AH9968) final concentrations) with or without 5 μL containing test compound or vehicle (DMSO, 1% final concentration), in a total volume of 25 μL, in a polypropylene 96-well plate (Greiner, V-bottom). After 90 min at 30° C., reactions were stopped by adding 25 μL/well of 150 mM phosphoric acid. […] 40 μL/well of Microscint-20 was added, the top of the plates was sealed and readout was performed using the Topcount (Perkin Elmer). Kinase activity was calculated by subtracting counts per min (cpm) obtained in the presence of a positive control inhibitor (10 μM staurosporine) from cpm obtained in the presence of vehicle. The ability of a test compound to inhibit this activity was determined as:
Percentage inhibition=((cpm determined for sample with test compound present−cpm determined for sample with positive control inhibitor) divided by (cpm determined in the presence of vehicle−cpm determined for sample with positive control inhibitor))*100. […]

Assay [2] has as its system CTLL2 (ATCC TIB-214). In words: CTLL2 viability assay. Type of assay: cell-based. To be noted: IL2-dependent viability, ATP-lite, individual determinations. The procedure: The protocol describes the methods to analyse the activity of compounds on the ability to sustain the IL2-dependent viability of CTLL2 (ATCC TIB-214).
Negative control is a DMSO dilution, positive control at 10 μM. Final DMSO concentration is 0.1%.

In assay [3] the test system is Collagen Induced Arthritis (CIA). In words: Rat CIA model. Type of assay: in vivo. To be noted: p.o., therapeutic dosing day 16 to day 30. The procedure: Completed Freund's adjuvant (CFA) and incomplete Freund's adjuvant (IFA) were purchased from Difco. Bovine collagen type II (CII), lipopolysaccharide (LPS), and Enbrel was obtained from Chondrex (Isle d'Abeau, France); Sigma (P4252, L'Isle d'Abeau, France), […] (25 mg injectable syringe, France) Acros Organics (Palo Alto, Calif.), respectively. All other reagents used were of reagent grade and all solvents were of analytical grade. Dark Agouti rats (male, 7-8 weeks old) were obtained from Harlan Laboratories (Maison-Alfort, France). Rats were kept on a 12 h light/dark cycle (0700-1900). Temperature was maintained at 22° C., and food and water were provided ad libitum. […] A compound of interest was typically tested at 5 doses, e.g. 1, 2, 3, 5, and 10 mg/kg, p.o. Arthritis is scored according to the method of Khachigian 2006, Lin et al 2007 and Nishida et al. 2004). […] To permit the meta-analysis of multiple studies the clinical score values were normalised as follows: AUC of clinical score (AUC score): The area under the curve (AUC) from day 1 to day 14 was calculated for each individual rat. The AUC of each animal was divided by the average AUC obtained for the vehicle in the study from which the data on that animal was obtained and multiplied by 100 (i.e. the AUC was expressed as a percentage of the average vehicle AUC per study). […]

Values joined by “and” are separate entries in the source; they are usually repeats but may differ in a detail not shown here. Equal values may be shown once.

By IC50 is commonly meant the concentration needed to halve the response being measured. As for `CCc1cc(C2CN(S(C)(=O)=O)C2)ncc1N(C)c1cc2c(cn1)ncn2C` [Compound 1, [4-Ethyl-6-(1-methanesulfonyl-azetidin-3-yl)-pyridin-3-yl]-methyl-(1-methyl-1H-imidazo[4,5-d]pyridin-6-yl)-amine], the IC50 in assay [1] was 0.844 µM and 0.461 µM and 0.47 µM and 0.488 µM and 0.759 µM and 0.754 µM and 1 µM and 0.501 µM and 0.688 µM; in assay [2] (24 h, listed as compound of the invention), 3.79 µM; in assay [2] (Mus musculus, CTLL-2, 24 h), 7.39 µM. The “dose from which statistically significant efficacy was displayed” value in assay [3] is listed as no less than 3 mg/kg.
